The values that follow come from patent US20060241026A1, “Novel cyclic peptides and use thereof as anti-microbial agents” (priority 2002, published 2006).

In experiment [1] the test system is Bacillus megaterium. Type of experiment: cell-based. Here is the method: (§1) The activity of the synthetic peptides was tested with respect to the Gram+ bacteria Mycrocossus luteus, Staphylococcus aureus, Staphylococcus epidermidis and Bacillus megaterium. The activities were determined according to the protocol described by HANCOCK et al. (http://www.interchg.ubc.ca/bobh/methods.htm)
(§2) The MIC was determined for each peptide by inhibition of growth in liquid medium. Doubling dilution of peptide was realized in the wells of a Microtest plate in a volume of 10 μl. The bacteria were grown in MUELLER HINTON BROTH (MHB, Difco) liquid medium. During the exponential growth phase, a solution with an optical density of 0.001 at 600 nm was produced, and 100 μl of this suspension were added to each well. The incubation lasted 24 h at 30° C., and the optical densities of each well were then measured at 600 nm. The value of the MIC corresponds to the first well for which the optical density had not changed.
(§3) The dishes were incubated for 24 h at 30° C. The value of the MBC corresponds to the lowest concentration of the peptide for which no colony developed.

The test system of experiment [2] is Micrococcus luteus. Type of experiment: cell-based. Here is the method: as §1, §2, §3
Experiment [3] deals with Staphylococcus aureus. The experiment is classed as cell-based. Here is the method:
as §1, §2, §3

Experiment [4] deals with Staphylococcus epidermidis. Type of experiment: cell-based. Here is the method: as §1, §2, §3
The test system of experiment [5] is Fusarium oxysporum. Type of experiment: cell-based. Here is the method:
(§4) The anti-fungal activity was determined by calculating the MIC in a growth inhibition assay for the shrimp parasite fungus Fusarium oxysporum, in liquid phase, according to the protocol described by FELHBAM et al. (J. Biol. Chem., 1994, 269:33159-63). Doubling dilutions of each peptide were realized in the wells of a Microtest plate in a volume of 10 μl. 90 μl of spores resuspended in potato dextrose broth medium (DIFCO) at a final concentration of 10^4 spores/ml were added to each well. The growth inhibition was measured after incubation for 24 h at 25° C. in the dark, by observation under an optical microscope and measurement of the increase in OD at 600 nm. The value of the MIC corresponds to the first well for which the optical density had not increased.

Experiment [6] deals with Gram+ and Gram− bacteria and a filamentous fungus. The experiment is described as follows: Antibiotic tests on Gram+ and Gram- bacteria and on a filamentous fungus, summary in words. Type of experiment: cell-based. Conditions: compared with the native molecule or the minimal loop. Here is the method:
as §1, §2, §3, §4
Using the 3-D structure of the native molecule as a basis, said molecule was fractionated into 17 elements (table I). All these fragments were synthesized and their activities were assayed using antibiotic tests on Gram+ and Gram− bacteria and on a filamentous fungus. The minimum inhibitory concentration (MIC) and minimum […] concentration (MBC) of each peptide were thus determined and were compared with those of the native molecule.

Experiment [7] shares this test system. The description is as above. Type of experiment: cell-based.
For experiment [8], the system named is Gram+ bacteria. Conditions: cited from earlier work.

Converted amounts (≈) assume the structure as drawn. “Also recorded” adds a separate entry of the source. Where two headings read alike, the source gives them in different places. Positions of bridges follow the written chain, without caps; N, C: chain ends. Residues, ends and D or L forms follow the SMILES beside them.

As for `CC(C)C[C@@H]1NC(=O)[C@H](CCCNC(=N)N)NC(=O)[C@H](Cc2c[nH]cn2)NC(=O)[C@H](Cc2c[nH]c3ccccc23)NC(=O)CNC(=O)CNC(=O)[C@@H](NC(=O)[C@H](Cc2ccc(O)cc2)NC(=O)CNC(=O)CNC(=O)[C@@H](N)CO)CSSC[C@@H](C(=O)N[C@H](C(=O)N[C@@H](CO)C(=O)N[C@@H](Cc2ccc(O)cc2)C(=O)N[C@@H](CCCNC(=N)N)C(=O)N[C@@H](CO)C(=O)NCC(=O)O)[C@@H](C)O)NC(=O)[C@H](CCCNC(=N)N)NC1=O` [SEQ ID NO:6, SGGYC^(S)GGWHRLRC^(S)TSYRSG] (H-SGGYCGGWHRLRCTSYRSG-OH; disulfide 5-13; N-terminus and C-terminus assumed), in experiment [1] (Bacillus), the “Bacillus megaterium MBC” value was more than 75 µM and the “Bacillus megaterium MIC” value is 25 µM. For the same compound, in experiment [2], the “Micrococcus luteus MBC” value was more than 75 µM and the “Micrococcus luteus MIC” value worked out at 29 µM. Further, the “MIC on M leuteus” value in experiment [2] (24 h) turned out to be 32 µM (≈ 67.2 µg/mL). Besides, in experiment [3], the “Staphylococcus aureus MBC” value is 75 µM and the “Staphylococcus aureus MIC” value came to 19 µM. Also, in experiment [4], the “Staphylococcus epidermidis MBC” value is more than 75 µM and the “Staphylococcus epidermidis MIC” value worked out at 24 µM. Besides, the “Fusarium oxysporum MIC” value in experiment [5] (24 h) is 14 µM.

As for `N=C(N)NCCC[C@@H]1NC(=O)[C@H](CCCCN)NC(=O)[C@H](CCCNC(=N)N)NC(=O)[C@H](CCCCN)NC(=O)[C@H](Cc2c[nH]c3ccccc23)NC(=O)CNC(=O)CNC(=O)[C@@H](N)CSSC[C@@H](C(=O)O)NC1=O` [SEQ ID NO:2, C^(S)GGWKRKRC^(S)] (H-CGGWKRKRC-OH; disulfide 1-9; N-terminus and C-terminus assumed), in experiment [1] (Bacillus), the “Bacillus megaterium MBC” value was more than 75 µM and the “Bacillus megaterium MIC” value was found to be 24 µM. For the same compound, in experiment [2], the “Micrococcus luteus MBC” value was more than 75 µM and the “Micrococcus luteus MIC” value was 14 µM. For the same compound, in experiment [2] (24 h), the “MIC on M leuteus” value was 13 µM (≈ 14.2 µg/mL). Moreover, in experiment [3], the “Staphylococcus aureus MBC” value came out at 33 µM and the “Staphylococcus aureus MIC” value was found to be 15 µM. For the same compound, in experiment [4], the “Staphylococcus epidermidis MBC” value is more than 75 µM and the “Staphylococcus epidermidis MIC” value came out at 20 µM. Also, the “Fusarium oxysporum MIC” value in experiment [5] (24 h) is 43 µM. Besides, the “anti-microbial activity (in words)” value in experiment [6] is listed as “increases the activity; also recorded: antibacterial potency greater than that of the cyclic peptide of sequence SEQ ID NO:1”.

For `CC(C)C[C@@H]1NC(=O)[C@H](CCCNC(=N)N)NC(=O)[C@H](Cc2c[nH]cn2)NC(=O)[C@H](Cc2c[nH]c3ccccc23)NC(=O)CNC(=O)CNC(=O)[C@@H]2CSSC[C@H](NC(=O)[C@H](CCCNC(=N)N)NC1=O)C(=O)N[C@@H]([C@@H](C)O)C(=O)N[C@@H](CO)C(=O)N[C@@H](Cc1ccc(O)cc1)C(=O)N[C@@H](CCCNC(=N)N)C(=O)N[C@H](C(=O)NCC(=O)O)CSSC[C@H](N)C(=O)NCC(=O)NCC(=O)N[C@@H](Cc1ccc(O)cc1)C(=O)N2` [SEQ ID NO:7, C^(S2)GGYC^(S1)GGWHRLRC^(S1)TSYRC^(S2)G] (H-CGGYCGGWHRLRCTSYRCG-OH; disulfide 1-18, 5-13; N-terminus and C-terminus assumed), the “anti-microbial activity (in words)” value in experiment [6] is on record as “more active than the minimal structure”. Besides, in experiment [7], the “ability to lyse cells” value is “brings about the ability to lyse cells”.

With `CC(C)C[C@@H]1NC(=O)[C@H](CCCNC(=N)N)NC(=O)[C@H](Cc2c[nH]cn2)NC(=O)[C@H](Cc2c[nH]c3ccccc23)NC(=O)CNC(=O)CNC(=O)[C@@H](N)CSSC[C@@H](C(=O)O)NC(=O)[C@H](CCCNC(=N)N)NC1=O` [SEQ ID NO:1, C^(S)GGWHRLRC^(S)] (H-CGGWHRLRC-OH; disulfide 1-9; N-terminus and C-terminus assumed), in experiment [1] (Table II), the “Bacillus megaterium MBC” value was 50 µM and the “Bacillus megaterium MIC” value amounted to 26 µM. Besides, in experiment [2] (Table 1, growth inhibition in liquid medium, 24 h at 30° C.), the “MIC on M leuteus” value came to 33 µM (≈ 35.8 µg/mL). In experiment [2] (Table II), the “Micrococcus luteus MBC” value stood at 50 µM and the “Micrococcus luteus MIC” value came to 24 µM. Further, in experiment [3] (Table II), the “Staphylococcus aureus MBC” value worked out at 75 µM and the “Staphylococcus aureus MIC” value came to 25 µM. Besides, in experiment [4] (Table II), the “Staphylococcus epidermidis MBC” value came out at 50 µM and the “Staphylococcus epidermidis MIC” value turned out to be 17 µM. The “Fusarium oxysporum MIC” value in experiment [5] (Table II, 24 h at 25° C.) is 28 µM. Besides, the “anti-microbial activity (in words)” value in experiment [6] is “has anti-bacterial activity”.

With “GFGCPNNYQCHRHCKSIPGRCGGYCGGWHRLRCTCYRCG (listed as Mytilus galloprovincialis) [SEQ ID NO:3, Mytilus galloprovincialis defensin, small cationic protein of 4 kDa comprising 39 amino acids; native molecule, reference compound]”, in experiment [1] (Table II), the “Bacillus megaterium MBC” value worked out at 1.5 µM and the “Bacillus megaterium MIC” value is 0.8 µM. Further, in experiment [2] (Table 1, plating on MHA, 24 h at 30° C.), the “MBC on M leuteus” value amounted to 2 µM. In addition, in experiment [2] (Table II), the “Micrococcus luteus MBC” value amounted to 1.5 µM and the “Micrococcus luteus MIC” value turned out to be 0.6 µM. Besides, in experiment [3] (Table II), the “Staphylococcus aureus MBC” value worked out at 1.2 µM and the “Staphylococcus aureus MIC” value came out at 0.6 µM. Besides, in experiment [4] (Table II), the “Staphylococcus epidermidis MBC” value amounted to 6.2 µM and the “Staphylococcus epidermidis MIC” value was found to be 3.1 µM. Also, the “Fusarium oxysporum MIC” value in experiment [5] (Table II, 24 h at 25° C.) was 5 µM. Moreover, in experiment [8], the “anti-bacterial and anti-fungal activity of MGD1 (in words)” value is “has anti-bacterial activity against Gram+ bacteria and anti-fungal activity”.
